Drawing on ChEMBL document CHEMBL2074517, “Bile acid inhibition of P-glycoprotein-mediated transport in multidrug-resistant cells and rat liver canalicular membrane vesicles” (Hepatology, 1994), this text covers Activity and activity for three compounds.

Holding throughout (parameters): scale not given: the % may be the effect or the level left
The target in data set [1] is Multidrug resistance protein 1a (Rattus norvegicus) (UniProt Q6PSM0). Nature of the data set: TP_TRANSPORTER: inhibition of Daunomycin uptake (Daunorubicin: 10 uM, TLCA: 200 uM) in canalicular membrane vesicles from SD rat. As to conditions: Sprague-Dawley, Canalicular membrane vesicle. The format is functional, cell membranes.
Sequence of Multidrug resistance protein 1a (Rattus norvegicus) (Q6PSM0 as listed by the source): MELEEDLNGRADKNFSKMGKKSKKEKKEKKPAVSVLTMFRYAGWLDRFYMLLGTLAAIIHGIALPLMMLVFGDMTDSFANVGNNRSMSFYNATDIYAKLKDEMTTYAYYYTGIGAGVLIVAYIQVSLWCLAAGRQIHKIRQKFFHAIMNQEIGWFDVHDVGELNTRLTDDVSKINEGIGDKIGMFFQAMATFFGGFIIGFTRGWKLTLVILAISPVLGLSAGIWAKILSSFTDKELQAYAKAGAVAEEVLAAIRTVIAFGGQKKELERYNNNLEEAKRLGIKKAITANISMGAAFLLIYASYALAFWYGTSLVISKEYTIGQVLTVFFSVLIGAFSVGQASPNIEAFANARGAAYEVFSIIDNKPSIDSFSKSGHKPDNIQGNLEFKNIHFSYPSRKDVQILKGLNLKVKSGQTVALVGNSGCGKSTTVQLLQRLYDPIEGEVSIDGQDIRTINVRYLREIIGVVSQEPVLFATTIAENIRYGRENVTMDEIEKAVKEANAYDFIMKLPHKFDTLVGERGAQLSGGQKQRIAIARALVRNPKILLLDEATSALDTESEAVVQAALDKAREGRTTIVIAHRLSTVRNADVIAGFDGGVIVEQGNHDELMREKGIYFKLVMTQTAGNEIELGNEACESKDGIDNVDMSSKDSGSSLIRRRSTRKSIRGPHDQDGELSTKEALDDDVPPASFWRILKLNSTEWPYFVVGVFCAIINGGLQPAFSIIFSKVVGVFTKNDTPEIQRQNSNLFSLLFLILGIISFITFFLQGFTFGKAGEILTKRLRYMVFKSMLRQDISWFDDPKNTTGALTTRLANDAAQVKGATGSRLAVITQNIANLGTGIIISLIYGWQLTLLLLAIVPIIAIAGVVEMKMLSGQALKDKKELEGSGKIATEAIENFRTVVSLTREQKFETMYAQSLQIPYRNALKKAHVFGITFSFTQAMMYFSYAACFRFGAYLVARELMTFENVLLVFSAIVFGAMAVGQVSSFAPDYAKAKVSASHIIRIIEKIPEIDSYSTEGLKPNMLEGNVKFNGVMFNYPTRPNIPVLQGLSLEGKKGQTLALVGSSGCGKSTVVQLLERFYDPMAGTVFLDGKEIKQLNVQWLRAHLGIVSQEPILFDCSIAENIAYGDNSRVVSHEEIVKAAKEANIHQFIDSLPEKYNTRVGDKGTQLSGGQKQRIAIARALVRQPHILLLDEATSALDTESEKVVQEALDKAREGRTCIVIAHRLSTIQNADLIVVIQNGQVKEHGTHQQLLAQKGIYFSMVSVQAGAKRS
The target in data set [2] is ATP-dependent translocase ABCB1 (P-glycoprotein) (Homo sapiens, UniProt P08183). Nature of the data set: TP_TRANSPORTER: inhibition of Rhodamine 123 efflux (R123: 5 ug/mL, TLCA: 200 uM) in P1(0.5) cells. The format is functional, cell-based. Particulars: probe Rhodamine 123, read-out: Activity.
Sequence of ATP-dependent translocase ABCB1 (P-glycoprotein) (P08183 whole entry): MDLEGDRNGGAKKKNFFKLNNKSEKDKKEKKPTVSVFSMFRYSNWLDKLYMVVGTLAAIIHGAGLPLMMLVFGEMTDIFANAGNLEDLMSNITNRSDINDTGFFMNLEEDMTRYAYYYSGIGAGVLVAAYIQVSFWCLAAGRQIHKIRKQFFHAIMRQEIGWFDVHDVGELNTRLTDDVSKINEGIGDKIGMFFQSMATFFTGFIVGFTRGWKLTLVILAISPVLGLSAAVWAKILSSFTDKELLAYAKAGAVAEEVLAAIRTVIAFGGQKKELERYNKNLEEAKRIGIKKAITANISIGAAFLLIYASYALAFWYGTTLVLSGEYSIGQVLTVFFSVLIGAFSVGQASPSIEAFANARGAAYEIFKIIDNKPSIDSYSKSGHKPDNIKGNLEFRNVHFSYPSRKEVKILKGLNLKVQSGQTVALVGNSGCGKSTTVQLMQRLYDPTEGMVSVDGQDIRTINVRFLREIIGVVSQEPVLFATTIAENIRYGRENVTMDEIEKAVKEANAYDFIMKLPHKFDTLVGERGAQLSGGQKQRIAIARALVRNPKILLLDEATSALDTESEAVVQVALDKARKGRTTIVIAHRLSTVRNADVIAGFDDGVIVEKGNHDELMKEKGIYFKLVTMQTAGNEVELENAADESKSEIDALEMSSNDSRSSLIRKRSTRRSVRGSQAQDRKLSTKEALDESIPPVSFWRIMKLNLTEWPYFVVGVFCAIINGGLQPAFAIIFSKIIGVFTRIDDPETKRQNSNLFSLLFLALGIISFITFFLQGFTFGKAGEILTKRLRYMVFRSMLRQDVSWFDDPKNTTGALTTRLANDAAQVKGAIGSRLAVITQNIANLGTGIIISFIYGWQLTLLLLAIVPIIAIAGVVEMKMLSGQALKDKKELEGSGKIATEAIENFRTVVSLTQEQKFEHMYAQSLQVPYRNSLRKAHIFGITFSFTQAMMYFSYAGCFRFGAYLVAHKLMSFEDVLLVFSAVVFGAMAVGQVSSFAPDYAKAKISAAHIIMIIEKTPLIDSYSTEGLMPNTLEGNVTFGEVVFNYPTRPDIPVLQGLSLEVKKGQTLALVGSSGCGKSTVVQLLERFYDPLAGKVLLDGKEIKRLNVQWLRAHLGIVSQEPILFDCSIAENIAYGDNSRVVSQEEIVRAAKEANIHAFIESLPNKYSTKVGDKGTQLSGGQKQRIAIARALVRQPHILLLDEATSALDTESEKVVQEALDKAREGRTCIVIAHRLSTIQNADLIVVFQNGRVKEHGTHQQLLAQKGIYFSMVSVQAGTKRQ
Data set [3] addresses Multidrug resistance protein 1a (Rattus norvegicus) (UniProt Q6PSM0). Nature of the data set: TP_TRANSPORTER: inhibition of Daunomycin uptake (Daunorubicin: 10 uM, UDCA: 200 uM) in canalicular membrane vesicles from SD rat. The format is functional, cell membranes. Particulars: Sprague-Dawley, Canalicular membrane vesicle.
Data set [4] concerns the target ATP-dependent translocase ABCB1 (Homo sapiens, UniProt P08183). Nature of the data set: TP_TRANSPORTER: inhibition of Rhodamine 123 efflux (R123: 5 ug/mL, TCDC: 200 uM) in P1(0.5) cells. The format is functional, cell-based.
In data set [5] the target is Multidrug resistance protein 1a (Rattus norvegicus) (UniProt Q6PSM0). Nature of the data set: TP_TRANSPORTER: inhibition of Daunomycin uptake (Daunorubicin: 10 uM, TCDC: 200 uM) in canalicular membrane vesicles from SD rat. As to conditions: Sprague-Dawley, Canalicular membrane vesicle. The format is functional, cell membranes.

SMILES strings stand for the structures.

Sequence of ATP-dependent translocase ABCB1 (P08183 whole entry): as above

On to `C[C@H](CCC(=O)NCCS(=O)(=O)O)[C@H]1CC[C@H]2[C@@H]3CC[C@@H]4C[C@H](O)CC[C@]4(C)[C@H]3CC[C@]12C` [TAUROLITHOCHOLIC ACID], for which the Activity in data set [1] is 16%. Also, the activity at 200 µM in data set [2] came to 40%. Consider `C[C@H](CCC(=O)O)[C@H]1CC[C@H]2[C@@H]3[C@@H](O)C[C@@H]4C[C@H](O)CC[C@]4(C)[C@H]3CC[C@]12C`, for which the Activity in data set [3] is 39%. In the case of `C[C@H](CCC(=O)NCCS(=O)(=O)O)[C@H]1CC[C@H]2[C@@H]3[C@H](O)C[C@@H]4C[C@H](O)CC[C@]4(C)[C@H]3CC[C@]12C` [TAUROCHENODEOXYCHOLATE], the Activity in data set [4] was 66%; in data set [5], 33%.
